Measurements: PubChem BioAssay (NCI)
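Each compound was tested at five concentrations against cells in 96-well plates for 48 hours. TGI: concentration producing complete growth inhibition.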

Tests used:
Experiment in all cases: NCI-60 cell line screen, 48 h
CAKI-1 renal = system: CAKI-1 renal
DLD-1 colon = system: DLD-1 colon
DMS 114 small cell lung = system: DMS 114 small cell lung
DMS 273 small cell lung = system: DMS 273 small cell lung
HOP-18 NSCLC = system: HOP-18 NSCLC
LXFL 529 NSCLC = system: LXFL 529 NSCLC
M14 melanoma = system: M14 melanoma
M19-MEL melanoma = system: M19-MEL melanoma
RXF-631 renal = system: RXF-631 renal
SF-539 CNS = system: SF-539 CNS
SNB-78 CNS = system: SNB-78 CNS
XF 498 CNS = system: XF 498 CNS
KM20L2 colon = system: KM20L2 colon
MCF7 breast = system: MCF7 breast
MDA-MB-231 breast = system: MDA-MB-231 breast
PC-3 prostate = system: PC-3 prostate

Row | SMILES | TGI (CAKI-1 renal) | TGI (DLD-1 colon) | TGI (DMS 114 small cell lung) | TGI (DMS 273 small cell lung) | TGI (HOP-18 NSCLC) | TGI (LXFL 529 NSCLC) | TGI (M14 melanoma) | TGI (M19-MEL melanoma) | TGI (RXF-631 renal) | TGI (SF-539 CNS) | TGI (SNB-78 CNS) | TGI (XF 498 CNS) | TGI (KM20L2 colon) | TGI (MCF7 breast) | TGI (MDA-MB-231 breast) | TGI (PC-3 prostate)
1 | O=c1[nH]c(=O)n(C2CC(O)C(CO)O2)cc1C#Cc1cc(F)cc(F)c1 (stereo unspecified) | > 100 µM | > 100 µM | > 100 µM | > 100 µM | 83.2 µM | > 100 µM | > 100 µM | > 100 µM | > 100 µM | > 100 µM | > 100 µM | > 100 µM |  |  |  | 
2 | O=C(c1ccccc1)c1c(CNCc2ccccc2)n(C(=O)c2ccccc2)c2ccccc12 | > 100 µM | > 100 µM | > 100 µM | > 100 µM |  | > 100 µM | > 100 µM | > 100 µM |  | > 100 µM |  | > 100 µM | > 100 µM |  |  | 
3 | N#Cc1c2nc3ccccc3nc2n2ccc3ccccc3c12 |  | > 100 µM | > 100 µM | > 100 µM | > 100 µM | > 100 µM | > 100 µM | > 100 µM |  | > 100 µM | > 100 µM |  |  |  |  | 
4 | COc1ccc([C@@H]2CC(=O)NCCCCNCCCN2)cc1 | > 100 µM | > 100 µM | > 100 µM | > 100 µM | > 100 µM | > 100 µM | > 100 µM | > 100 µM |  | > 100 µM | > 100 µM | > 100 µM | > 100 µM |  |  | 
5 | CSc1ccc2c(cc1=O)[C@@H](NC(=O)c1ccc(F)cc1)CCc1cc(O)c(O)c(O)c1-2 | > 100 µM | > 100 µM | > 100 µM | > 100 µM | > 100 µM | > 100 µM | > 100 µM | > 100 µM | > 100 µM | > 100 µM | > 100 µM |  | > 100 µM |  |  | 
6 | Nc1ccc(N)c2c1C(=O)c1c(N)ccc(N)c1C2=O | > 100 µM | > 100 µM | > 100 µM | > 100 µM | 64.7 µM |  | > 100 µM | > 100 µM |  | > 88.8 µM | > 100 µM | > 89.2 µM | > 100 µM |  |  | 
7 | CCn1cnc2c(NC(C)=O)ncnc21 | > 100 µM |  |  |  |  |  | > 100 µM |  |  | > 100 µM |  |  |  | > 100 µM | > 100 µM | > 100 µM
8 | COC(Cc1ccccc1)NC(C)=O (stereo unspecified) | > 100 µM |  |  |  |  |  | > 100 µM |  |  | > 100 µM |  |  |  | > 100 µM | > 100 µM | > 100 µM
9 | O=C(N/C(=C\c1ccccc1)C1Nc2ccccc2C(=O)O1)c1ccccc1 (stereo unspecified) | > 100 µM |  |  |  |  |  | 52.1 µM |  |  | 43.7 µM |  |  |  | > 100 µM | > 100 µM | > 100 µM
10 | CC[C@]12C=CCN3CCC4(c5cc([C@@]6(C(=O)OC)CC7CN(CCc8c6[nH]c6ccccc86)C[C@@H]6CCC[C@H]76)c(OC)cc5N(C)C4[C@](O)(C(=O)OC)C1OC(C)=O)C32 (stereo partly specified) | > 10 µM | > 10 µM | 1.01 µM |  |  | > 10 µM | > 3.45 µM | > 10 µM |  | 0.574 µM | > 2.85 µM |  | 0.209 µM | > 10 µM | 0.536 µM | > 10 µM
